Test results: a melting point compilation (Tetko et al.; mined from patent text by program, amines drawn as free bases though some values may be those of a salt)

Row | melting point | SMILES
1 | 199 to 201 °C | COc1cc(N)c(Cl)cc1C(=O)NCC1CCN(CCCC(=O)c2ccc(O)cc2)CC1
2 | 116 °C | COc1cc(OCc2ccc(C(=O)N(C)C3CCCCC3)cc2)cc(OC)c1OC
3 | 112 to 115 °C | N#Cc1cnc2ccc(NC(=O)C#CCN3CCOCC3)cc2c1Nc1cccc(Br)c1
4 | 77 to 78 °C | CCOC(=O)c1ncsc1-c1cccc(I)c1
5 | 76 to 77 °C | CCOC(=O)c1ccc(COc2ccc3c(c2)C(C)(C)CCC3(C)C)cc1
6 | > 250 °C | CCn1nc(-c2nc(C(=O)O)c(NCc3ccc(OC)cc3)nc2-c2ccccc2)ccc1=O
7 | 93 to 94 °C | COC(=O)c1c(Cl)cc(Cl)cc1NC(=O)CSc1ccccc1OC
8 | 117 °C | CCC(=O)c1cc(-c2cccc(OCc3ccc(COC(=O)c4ccccc4)c(COC(=O)c4ccccc4)c3)c2)cs1
9 | 83.5 to 84 °C | CCCC[Si](C)(C)CCSCCCNC(=O)n1cc(F)c(=O)[nH]c1=O
10 | 141 °C | COC(=O)c1cc(C#N)cc2c1OC(c1ccccc1)(c1ccccc1)O2
11 | 131 to 133 °C | Cc1ccc(S(=O)(=O)ON2C(=O)c3ccc(C(=O)Cl)cc3C2=O)cc1
12 | 167 to 168 °C | CS(=O)(=O)c1ccc(-c2nn3c(c2-c2ccc(F)cc2)OCCCC3)cc1
13 | 207 to 210 °C | COc1cc(C(=O)O)nc(-c2cccc([N+](=O)[O-])c2)c1
14 | 39.5 to 43 °C | Clc1cnc(Br)c(Br)c1
15 | 87 °C | CCN(CC)C(=O)CCc1nc(-c2cccc(OC)c2)nc2ccccc12
16 | 125 to 127 °C | CC(C)Oc1ccc2nc(CO)n(C)c2n1
17 | 186 to 187 °C | CCc1cccc(CC)c1NC(=O)Nc1cnc(C)nc1-c1ccccc1Cl
18 | 174 to 176 °C | Oc1cc(O)c2c(c1)Oc1ccc(Br)cc1CC2
19 | 273 °C | Cc1ccc2c(c1)C=Cc1cc(C)ccc1C2c1cn(Cc2nc(C(=O)O)co2)c(=O)[nH]c1=S
20 | 78 to 79 °C | N#Cc1cn(Cc2ccccc2)nn1
21 | 93.5 to 94.5 °C | Cc1noc(Cc2ccccc2Nc2c(Cl)cccc2Cl)n1
22 | 122 to 124 °C | Clc1ccc(Br)c2nc(SCc3ccccc3)nn12
23 | 67 to 68 °C | CCCc1cccc2c(/C=C(\C)C(=O)O)cc(OC)c(OCOC)c12
24 | 190 to 192 °C | O=C(C=Cc1ccc(O)cc1)c1c(O)cccc1O

Row | melting point | SMILES
25 | 141 °C | CC1(C)Cc2cccc(OCCNCc3cncc(C4=CCCC4)c3)c2O1
26 | 207 to 208 °C | CSc1cccc(-c2nc(=O)c3ccccc3s2)n1
27 | 88 to 89 °C | Cc1cccc(C(O)CNC(=C[N+](=O)[O-])NCCSCc2cc(C)c(CN(C)C)s2)c1 (stereo not given)
28 | 137 °C | CCOC(=O)c1ccc2nc(N[C@@H]3CCc4ccccc43)ccc2c1
29 | 148 °C | COc1ccc(Sc2nc(-c3ccc(OC)cc3)c(-c3ccc(OC)cc3)[nH]2)cc1
30 | 138 to 140 °C | CCN(CC)c1ccc(C2(CNC(=O)Nc3c(C(C)C)cccc3C(C)C)CCCC2)cc1
31 | 155 to 156 °C | COCCNC(=O)CC1CN=C(c2cc3cc(Oc4ccc(S(C)(=O)=O)nc4)ccc3[nH]2)S1 (stereo not given)
32 | 170 °C | CC(=O)N(C)CCCC(=O)OC1c2ccccc2C(=O)N1c1ccc2ccc(Cl)nc2n1 (stereo not given)
33 | 82 to 83 °C | Cc1nn(C2(F)C=CC([N+](=O)[O-])=CC2)c(=O)n1C(F)F (stereo not given)
34 | 235 to 237 °C | CC(C)(O)Cn1c(CO)nc2c(N)nc3cccnc3c21
35 | 76.9 to 78.6 °C | CCOC(=O)c1cn(CCc2ccccc2)nc1N
36 | 118 to 121 °C | O=C(COc1ccc([N+](=O)[O-])cc1)OCCOC(=O)COc1ccc([N+](=O)[O-])cc1
37 | 278 °C | O=C1OC(=O)c2cc3c(ccc4ccccc43)cc21
38 | 96 to 97 °C | Nc1ccc(S(=O)(=O)NCCCN2CCOCC2)cc1
39 | 288 °C | O=CNc1nc(NC2CC2)nc(N2CCOCC2)n1
40 | 207 to 208 °C | COc1cc(OC)c(C(=O)C=CC(=O)O)cc1OC
41 | 99 °C | CCc1cc2c(-c3ccccc3Cl)nc(=O)n(C)c2s1
42 | 230 to 232 °C | O=C(O)COc1ccc(Cl)c2c(=O)c3ccccc3sc12
43 | 125 to 126 °C | CCCCCN(Cc1ccc(-c2ccccc2S(=O)(=O)NC(C)(C)C)cc1)C(=O)Cl
44 | 248 to 249 °C | Nc1nc(N)nc(-c2ccc(C#Cc3ccccc3)cc2)n1
45 | 164 to 167 °C | Cc1nc[nH]c1CSCCN=C(NC#N)NCCN
46 | 114 to 117 °C | CN(C)CCc1cccc2ccc(CS(=O)(=O)N3CCOCC3)cc12
47 | 94 to 95 °C | N#CC(Cl)Cc1ccc(Cl)cc1C(=O)c1ccccc1F (stereo not given)
48 | 246 °C | CCOC(=O)c1c(N2CCN(C(=O)c3ccco3)CC2)c2sccc2n(CC(=O)c2ccccc2)c1=O

Row | melting point | SMILES
49 | 196 to 198 °C | CCc1nc(-c2ncn3c4ccc(Cl)cc4c(=O)n(C)c23)no1
50 | 108 °C | CCOCCOc1ccc(CCNC(=O)c2ccccc2CC(=O)OCC)cc1
51 | 219 to 220 °C | CCCc1c(C(=O)NCc2ccc3c(Br)c(OCc4nnn[nH]4)ccc3c2)cnn1-c1ccccc1
52 | 199 to 200 °C | O=C1c2c(Cl)cc(Cl)c(Cl)c2C(=O)N1c1ccccc1
53 | 58 to 65 °C | CC(C)(C)OC(=O)N1C(CC2CCCCC2)C(C(O)CNS(=O)(=O)C(c2ccccc2)c2ccccc2)OC1(C)C (stereo not given)
54 | 213 to 218 °C | CCOC(=O)C1=C(C)Nc2cc(=O)[nH]n2C1c1cccc(Cl)c1Cl (stereo not given)
55 | 184 to 185 °C | CCOC(=O)c1c(Cn2cncn2)nc2sc3c(c2c1-c1ccc(OC)c(OC)c1)CCCN3C(=O)OCc1ccccc1
56 | 220 °C | Nc1nc2ccc(S(=O)(=O)n3c(CCCC(=O)O)cc4cc(Cl)ccc43)cc2o1
57 | 117 °C | CC(=O)Nc1cc2c(cc1Oc1ccc(F)cc1F)CCC2c1ccccc1 (stereo not given)
58 | 111 °C | Cc1ccc(NS(=O)(=O)c2ccc(Br)cc2)c(F)c1
59 | 100 to 102 °C | CC(C)(C)c1ccc2oc(C(=O)CBr)cc2c1
60 | 124 to 125 °C | COc1nc(Cl)n2nc(SCc3ccccc3)nc2c1Br
61 | 115 to 135 °C | C[C@H](NC(=O)Cc1ccccc1F)C(=O)N[C@@H]1C(=O)Nc2ccccc2O[C@@H]1c1ccccc1
62 | > 300 °C | CCn1c(=O)c2[nH]c(/C=C/c3ccc(F)c(F)c3)nc2n(CC)c1=O
63 | 105 to 107 °C | CCOC(=O)COc1ccc(C(C)=O)cc1NC(=O)c1ccc(OCCCCc2ccccc2)cc1
64 | 85 to 86 °C | COC(=O)C=Cc1cccc2cc[nH]c12
65 | 133 to 135 °C | CC(=NOCCO)c1cn(C)c(-c2ccccc2)n1
66 | 223 to 225 °C | Nc1ncc(-c2cnc3ccc(-c4ccc(OCC5(CNC(=O)C6CC6)COC5)cc4)nn23)cc1C(F)(F)F
67 | 112 to 115 °C | COC(=O)Cc1cc(Oc2nn(C)c(C(F)(F)F)c2Cl)ccc1[N+](=O)[O-]
68 | 263 to 264 °C | NC(CC(=O)c1ccc(N2CCN(c3ccncc3)CC2)cc1)C(=O)O (stereo not given)
69 | 100 °C | CC(C)c1ccc(C(=O)NC(C)c2cccs2)cc1 (stereo not given)
70 | 204 to 205 °C | COc1ccccc1-n1c(-c2cc(-c3ccncc3)c(N3CCOCC3)s2)nc2ccccc2c1=O
71 | 78 °C | Cc1cc(C)nc(NC(=O)NS(=O)(=O)c2ccccc2-c2ccccc2)n1
72 | 51 to 52 °C | CCOC(=O)c1cc2c(C)ccc3c2n1CCC3

Row | melting point | SMILES
73 | 129 to 133 °C | Nc1ccccc1N1CCN(C=O)CC1
74 | 174 to 176 °C | Cc1ccccc1NC(=O)C=CC=CC1(F)CC1c1ccc(Br)c(Br)c1 (stereo not given)
75 | 215 to 217 °C | CCCn1c(=O)c2c(nc(C=Cc3ccc(C(=O)O)cc3)n2C)n(CCC)c1=O
76 | 171 to 174 °C | CSc1cn(C)c2ccsc2c1=O
77 | 237 to 239 °C | COc1cc(C=c2[nH]c(=O)c(=Cc3ccc(OCc4ccccc4)cn3)[nH]c2=O)cc(OC)c1
78 | 108 to 110 °C | COC(=O)c1ccc2c(ccn2C)c1
79 | 215 to 217 °C | COc1cc(Nc2c(C#N)cnc3cc(Br)ccc23)c(Cl)cc1C
80 | 145 to 148 °C | CN1C(=O)C(S)=C(S)C1=O
81 | 348 to 349 °C | O=c1[nH]c(=Cc2ccc3ccccc3n2)c(=O)[nH]c1=Cc1ccc(Cl)cc1
82 | 210 to 211 °C | Cc1cccc(NC(=O)Nc2c(-c3ccccc3Cl)c3cc(C)c(C)cc3n(C)c2=O)c1
83 | 142 to 146 °C | O=S(=O)(c1ccccc1)c1ccc(NN=C2CCCN(Cc3ccccc3)CC2)cc1
84 | 109 to 111 °C | COc1ccccc1Cc1nc2ccccc2c(=O)n1CCCl
85 | 238 to 242 °C | CC(=O)N1CCc2c(c3ccc(-n4ccc(-c5ccc(C(F)(F)F)nc5)cc4=O)nc3n2C)C1
86 | 120 to 123 °C | Cc1ccnc(C(O)c2ccc(N)cc2C(F)(F)F)c1 (stereo not given)
87 | 155 to 157 °C | COC(=O)COc1ccc(C(=O)CN2CCN(c3ccnc(C)c3)CC2)cc1
88 | 130 °C | Cc1ccc(N)cc1Nc1nccc(-c2cncc(Br)c2)n1
89 | 177 to 178 °C | CN(C)c1ccc(C=Cc2cc3cc(O)ccc3o2)cc1
90 | 107 to 109 °C | CCCN(C1CCC1)[C@H]1COc2c(F)ccc(C(N)=O)c2C1
91 | 118 to 120 °C | CCCOc1cc2nc(Cl)nc(Cl)c2cc1OC
92 | 185 to 187 °C | CCOCc1nc2c(N)nc(C)c(C)c2n1CCNS(C)(=O)=O
93 | 185 to 190 °C | COc1cc2[nH]cc(C(=O)C(Cl)(Cl)Cl)c2cc1Br

Row | SMILES | melting point
94 | CN1C(=O)CN=C(c2ccccc2)c2ccccc21 | 151 to 154 °C
95 | NNP(=S)(Oc1ccccc1)Oc1ccccc1 | 59 to 61 °C
96 | CC(=O)NC(NCC(=O)OCc1ccccc1)C(=O)NCc1ccccc1 (stereo not given) | 133 to 135 °C
97 | CC(=O)OC1CCC2(C)C(=CCC3C4CCC(=O)C4(C)CC(OC(C)=O)C32)C1 (stereo not given) | 177 to 179 °C
98 | COc1ncnc2c(Cl)c(NC3=NCCN3)ccc12 | 238 to 239 °C
99 | O=[N+]([O-])N=C1NCCN1Cc1ccc(OCC(F)(F)F)nc1 | 109 to 112 °C
100 | CC(C)(Cc1ccccc1)C(NC(=O)c1ccc(Cl)cc1)NC(=N[N+](=O)[O-])Nc1cccnc1 (stereo not given) | 205 to 207 °C
